Values quoted from earlier work in patent US20240165126A1 (TONIX PHARMACEUTICALS HOLDING CORP., priority 2021, published 2024).

Settings: orally administered; extensive first pass hepatic metabolism; Smith et al. 2012

In the case of C=CCN1CC[C@]23c4c5ccc(O)c4O[C@H]2C(=O)CC[C@@]3(O)[C@H]1C5 [Naloxone], the systemic bioavailability is given as at most 2%.
